Experiment [1] deals with T1, Tissue alpha-L-fucosidase (Homo sapiens) (UniProt P04066).
T1 sequence (whole entry): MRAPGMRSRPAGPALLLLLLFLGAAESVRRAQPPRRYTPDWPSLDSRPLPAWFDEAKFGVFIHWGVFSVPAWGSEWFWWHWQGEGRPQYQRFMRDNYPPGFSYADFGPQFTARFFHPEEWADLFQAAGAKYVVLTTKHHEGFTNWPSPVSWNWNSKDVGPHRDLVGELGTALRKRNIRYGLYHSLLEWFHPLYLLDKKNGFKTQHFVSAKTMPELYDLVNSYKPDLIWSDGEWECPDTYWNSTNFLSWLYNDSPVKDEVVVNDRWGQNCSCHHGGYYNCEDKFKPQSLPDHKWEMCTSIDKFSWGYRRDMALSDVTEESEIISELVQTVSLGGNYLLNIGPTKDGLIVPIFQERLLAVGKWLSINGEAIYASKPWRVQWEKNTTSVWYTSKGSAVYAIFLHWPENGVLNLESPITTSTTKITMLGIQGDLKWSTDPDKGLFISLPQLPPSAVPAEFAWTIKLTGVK
The conditions noted are these: 1000 uM.

Experiment [2] addresses T2, Beta-galactosidase (Rattus norvegicus) (UniProt D3ZUM4).
T2 sequence (whole entry): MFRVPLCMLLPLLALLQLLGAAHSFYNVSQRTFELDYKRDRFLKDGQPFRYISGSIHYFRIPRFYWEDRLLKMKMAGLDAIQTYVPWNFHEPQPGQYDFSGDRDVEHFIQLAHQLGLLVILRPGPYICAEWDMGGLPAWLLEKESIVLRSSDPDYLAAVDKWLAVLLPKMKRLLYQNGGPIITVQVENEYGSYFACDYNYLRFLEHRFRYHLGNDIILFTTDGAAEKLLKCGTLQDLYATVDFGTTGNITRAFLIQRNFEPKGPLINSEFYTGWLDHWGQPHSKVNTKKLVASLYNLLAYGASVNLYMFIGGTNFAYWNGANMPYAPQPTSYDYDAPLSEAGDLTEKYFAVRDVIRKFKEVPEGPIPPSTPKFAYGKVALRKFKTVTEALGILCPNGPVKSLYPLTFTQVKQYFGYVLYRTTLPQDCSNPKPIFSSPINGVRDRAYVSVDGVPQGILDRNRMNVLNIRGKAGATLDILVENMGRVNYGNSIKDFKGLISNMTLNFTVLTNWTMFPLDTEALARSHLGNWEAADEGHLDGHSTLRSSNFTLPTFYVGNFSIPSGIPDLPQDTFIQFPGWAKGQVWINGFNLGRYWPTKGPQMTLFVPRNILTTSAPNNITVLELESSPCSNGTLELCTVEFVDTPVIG
Kind of experiment: Percent inhibition of beta-galactosidase of rat epididymis at 1000 uM.

For experiment [3], the target named is T3, Alpha-galactosidase C (Aspergillus niger, UniProt Q9UUZ4).
T3 sequence (Q9UUZ4 whole entry): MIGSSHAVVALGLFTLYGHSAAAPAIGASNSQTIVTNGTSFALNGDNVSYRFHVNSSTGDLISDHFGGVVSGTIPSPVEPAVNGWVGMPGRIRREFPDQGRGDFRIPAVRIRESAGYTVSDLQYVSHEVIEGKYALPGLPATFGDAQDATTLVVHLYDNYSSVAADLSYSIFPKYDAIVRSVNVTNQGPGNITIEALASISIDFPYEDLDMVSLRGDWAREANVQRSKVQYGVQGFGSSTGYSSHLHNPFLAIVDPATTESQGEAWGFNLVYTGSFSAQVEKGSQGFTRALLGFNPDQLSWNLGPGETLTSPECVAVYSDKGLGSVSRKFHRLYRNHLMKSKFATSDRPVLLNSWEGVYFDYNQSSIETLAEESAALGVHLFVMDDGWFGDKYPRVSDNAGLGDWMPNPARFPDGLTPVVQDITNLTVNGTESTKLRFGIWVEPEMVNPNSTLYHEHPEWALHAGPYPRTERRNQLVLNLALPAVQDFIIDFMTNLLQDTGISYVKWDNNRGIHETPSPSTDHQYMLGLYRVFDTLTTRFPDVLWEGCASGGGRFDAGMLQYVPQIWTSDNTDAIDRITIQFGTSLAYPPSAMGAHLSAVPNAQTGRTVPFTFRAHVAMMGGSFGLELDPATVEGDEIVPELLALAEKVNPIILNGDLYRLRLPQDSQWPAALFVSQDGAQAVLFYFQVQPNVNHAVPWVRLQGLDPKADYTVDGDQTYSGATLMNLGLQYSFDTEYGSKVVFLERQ
Kind of experiment: Inhibitory concentration against alpha-galactosidase of Aspergillus niger.

Experiment [4] has as its target T4, Cytosolic beta-glucosidase (Homo sapiens, UniProt Q9H227).
T4 sequence (Q9H227 whole entry): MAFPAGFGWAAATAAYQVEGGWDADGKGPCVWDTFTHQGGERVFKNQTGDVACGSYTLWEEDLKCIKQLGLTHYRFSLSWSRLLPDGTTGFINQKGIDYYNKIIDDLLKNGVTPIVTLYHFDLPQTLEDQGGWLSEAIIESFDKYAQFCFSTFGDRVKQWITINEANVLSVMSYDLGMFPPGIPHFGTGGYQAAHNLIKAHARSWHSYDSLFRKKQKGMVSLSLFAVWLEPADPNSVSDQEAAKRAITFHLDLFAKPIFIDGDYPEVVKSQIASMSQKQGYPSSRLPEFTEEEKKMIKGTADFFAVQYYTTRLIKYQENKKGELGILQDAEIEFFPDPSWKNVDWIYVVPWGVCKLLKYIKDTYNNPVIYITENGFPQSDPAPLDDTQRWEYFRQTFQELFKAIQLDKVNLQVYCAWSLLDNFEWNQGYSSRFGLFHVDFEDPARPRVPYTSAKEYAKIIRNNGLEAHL
The experiment is described as follows: Inhibitory concentration against beta-glucosidase.

Experiment [5] concerns the target T2, Beta-galactosidase (Rattus norvegicus). Kind of experiment: Percent inhibition of beta galactosidase of rat epididymis at 1000 uM.
Experiment [6] addresses T4, Cytosolic beta-glucosidase. Kind of experiment: Inhibitory concentration against human beta-glucosidase.
Experiment [7] has as its target Alpha-galactosidase (Coffea arabica) (UniProt Q5DUH8). The conditions noted are these: 1000 uM.
Experiment [8] concerns the target T5, Tissue alpha-L-fucosidase (Bos taurus, UniProt Q2KIM0).
T5 sequence (Q2KIM0 whole entry): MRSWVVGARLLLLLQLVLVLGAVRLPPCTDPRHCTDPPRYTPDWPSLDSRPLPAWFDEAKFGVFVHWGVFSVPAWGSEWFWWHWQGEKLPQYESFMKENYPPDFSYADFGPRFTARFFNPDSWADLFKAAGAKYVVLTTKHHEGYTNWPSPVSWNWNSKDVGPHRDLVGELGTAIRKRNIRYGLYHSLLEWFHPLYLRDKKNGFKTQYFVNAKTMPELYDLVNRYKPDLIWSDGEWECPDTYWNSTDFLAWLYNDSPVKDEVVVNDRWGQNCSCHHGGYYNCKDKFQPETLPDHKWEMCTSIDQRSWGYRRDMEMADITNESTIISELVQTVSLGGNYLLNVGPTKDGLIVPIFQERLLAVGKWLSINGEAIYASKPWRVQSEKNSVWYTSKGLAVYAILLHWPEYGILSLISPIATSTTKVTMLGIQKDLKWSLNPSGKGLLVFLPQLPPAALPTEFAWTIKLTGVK
Kind of experiment: Inhibitory concentration against alpha-L-fucosidase of bovine epididymis.

The target of experiment [9] is T5, Tissue alpha-L-fucosidase. Kind of experiment: Ki value against bovine alpha-L-fucosidase.
Experiment [10] concerns the target T5, Tissue alpha-L-fucosidase. The experiment is described as follows: Inhibitory concentration against bovine alpha-L-fucosidase.

Chain of Alpha-galactosidase (Coffea arabica) (Q5DUH8 as listed by the source): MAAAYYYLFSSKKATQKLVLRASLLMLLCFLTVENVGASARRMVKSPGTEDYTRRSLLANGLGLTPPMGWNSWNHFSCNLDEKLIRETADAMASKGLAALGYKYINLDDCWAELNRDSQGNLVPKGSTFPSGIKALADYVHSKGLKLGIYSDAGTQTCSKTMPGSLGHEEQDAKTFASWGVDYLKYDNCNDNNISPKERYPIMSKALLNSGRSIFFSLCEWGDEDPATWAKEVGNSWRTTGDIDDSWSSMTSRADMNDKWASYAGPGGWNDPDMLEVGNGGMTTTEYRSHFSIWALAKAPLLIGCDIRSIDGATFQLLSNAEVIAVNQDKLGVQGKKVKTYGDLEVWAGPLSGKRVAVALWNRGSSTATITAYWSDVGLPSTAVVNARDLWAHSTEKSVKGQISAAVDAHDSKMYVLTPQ

`OC[C@H]1NC[C@H](O)[C@H](O)[C@H]1O`: the inhibition in experiment [1] and in experiment [2] was below 50% throughout.
Consider `OC[C@@H]1NC[C@@H](O)[C@@H](O)[C@H]1O`, for which the inhibition in [1] and in experiment [2] was below 50% each time.
With `OC[C@H]1NC[C@H](O)[C@@H](O)[C@H]1O`, the inhibition (usually the drop in the measured response relative to a control, in per cent) in experiment [1] is below 50%. Half-maximal inhibition in [3] (IC50) required 1.8 µM.
Regarding `OC[C@H]1NC[C@H](O)[C@@H](O)[C@@H]1O` [DUVOGLUSTAT], the inhibition in experiment [1] and in experiment [5] was below 50% each time. Moreover, the IC50 (as a rule, the midpoint of a concentration-inhibition curve) in [4] came out at 80 µM; in experiment [6], 240 µM.
`OC[C@H]1NC[C@@H](O)[C@H](O)[C@H]1O`: the inhibition in experiment [1] and in [2] was below 50% throughout. In addition, the IC50 came to 60 µM in [4] and 66 µM in [6].
`OC[C@@H]1NC[C@H](O)[C@@H](O)[C@@H]1O`: the inhibition in [1], in experiment [7] and in experiment [2] was below 50% throughout.
Regarding `OC[C@@H]1NC[C@@H](O)[C@@H](O)[C@@H]1O`, the inhibition in experiment [7] and in experiment [2] was below 50% each time. This compound yielded an IC50 in [8] of 156 µM. Besides, the inhibition constant Ki – broadly, the equilibrium dissociation constant of an inhibitor or competing ligand from its target – in experiment [9] is 14 µM.
Regarding `OC[C@H]1NC[C@@H](O)[C@@H](O)[C@@H]1O` [DEOXYMANNOJIRIMYCIN], the inhibition in experiment [7] and in experiment [2] was below 50% each time. The IC50 in experiment [8] came out at 39 µM. In addition, the affinity in experiment [9], expressed as Ki, was 4.7 µM.
Consider `OC[C@H]1NC[C@H](O)[C@H](O)[C@@H]1O`, for which, in experiment [2], the inhibition is below 50%.
Turning to `OC[C@@H]1NC[C@@H](O)[C@H](O)[C@H]1O`, the inhibition in experiment [1], in experiment [5] and in experiment [7] was below 50% each time. Moreover, the IC50 in experiment [4] worked out at 980 µM.
As to `OC[C@@H]1NC[C@H](O)[C@H](O)[C@H]1O`, the inhibition in experiment [1], in experiment [7] and in experiment [2] was below 50% each time.
Regarding `OC[C@@H]1NC[C@@H](O)[C@H](O)[C@@H]1O`, 0.63 µM corresponded to half-maximal inhibition in experiment [10] (IC50). Further, in [9], the inhibition constant Ki is 0.08 µM.
